Key:
[1] = target: CDK2-cycline E (Homo sapiens, UniProt P24941); experiment: Kinase assay (radioactive phosphate incorporation), CDK2-cyclin E; format: biochemical; conditions: read-out: Kinase Inhibition pIC50 CDK2-cycline E (converted)
Procedure: Kinase assays. The compounds of the invention above were investigated for their ability to inhibit the enzymatic activity of various protein kinases (Table 2). This was achieved by measurement of incorporation of radioactive phosphate from ATP into appropriate polypeptide substrates. Recombinant protein kinases and kinase complexes were produced or obtained commercially. Assays were performed using 96-well plates and appropriate assay buffers (typically 25 mM β-glycerophosphate, 20 mM MOPS, 5 mM EGTA, 1 mM DTT, 1 mM […], pH 7.4), into which were added 2-4 μg of active enzyme with appropriate substrates. The reactions were initiated by addition of Mg/ATP mix (15 mM MgCl2+100 μM ATP with 30-50 kBq per well of [γ-^32P]-ATP) and mixtures incubated as required at 30° C. Reactions were stopped on ice, followed by filtration through p81 filterplates or GF/C filterplates (Whatman Polyfiltronics, Kent, UK). After washing 3 times with 75 mM aq orthophosphoric acid, plates were dried, scintillant added and incorporated radioactivity measured in a scintillation counter (TopCount, Packard Instruments, Pangbourne, Berks, UK). Compounds for kinase assay were made up as 10 mM stocks in DMSO and diluted into 10% DMSO in assay buffer.

[2] = target: T1, Aurora A kinase (Homo sapiens, UniProt O14965); experiment: Aurora-A (human) kinase assay (Kemptide substrate); format: biochemical; conditions: pIC50 is -log(IC50, M), 15 μM ATP; for IC50: read-out: Kinase Inhibition pIC50 Aurora A kinase (converted)
T1 construct: purchased
T1 sequence (O14965 1-403): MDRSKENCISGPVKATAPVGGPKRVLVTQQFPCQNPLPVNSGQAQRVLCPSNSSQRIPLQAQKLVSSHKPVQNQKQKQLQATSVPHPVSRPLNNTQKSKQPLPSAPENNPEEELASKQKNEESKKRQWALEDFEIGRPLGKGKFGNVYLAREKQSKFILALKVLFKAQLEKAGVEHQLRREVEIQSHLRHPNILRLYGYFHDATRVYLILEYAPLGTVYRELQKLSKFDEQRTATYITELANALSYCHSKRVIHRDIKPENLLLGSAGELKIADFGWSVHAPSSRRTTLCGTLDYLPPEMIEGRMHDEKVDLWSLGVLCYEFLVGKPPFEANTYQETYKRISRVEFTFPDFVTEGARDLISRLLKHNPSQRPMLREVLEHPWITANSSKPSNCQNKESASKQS
Procedure: Aurora-A (human) kinase assay. This was achieved by measurement of incorporation of radioactive phosphate from ATP into Kemptide substrate (LRRASLG), upon phosphorylation by commercially obtained aurora-A kinase. Assays were performed using 96-well plates and appropriate assay buffers (8 mM MOPS, 0.2 mM EDTA, pH 7.0), into which were added 5-10 ng of active enzyme with 200 μM substrate (Kemptide). The reactions were initiated by addition of Mg/ATP mix (10 mM MgAcetate+15 μM ATP with 30-50 kBq per well of [γ-^33P]-ATP) and mixtures incubated for 40 min at room temperature. Reactions were stopped by addition of 3% phosphoric acid, followed by filtration through p81 filterplates (Whatman Polyfiltronics, Kent, UK). After washing 5 times with 75 mM aq orthophosphoric acid and once in methanol, plates were dried, scintillant added and incorporated radioactivity measured in a scintillation counter (TopCount, Packard Instruments, Pangbourne, Berks, UK). Compounds for kinase assay were made up as 10 mM stocks in DMSO and diluted into 10% DMSO in assay buffer.

| IC50 [1] [nM] | IC50 [2] [nM] | Kinase Inhibition pIC50 Aurora A kinase [2] | Structure (SMILES) |
| --- | --- | --- | --- |
| 10 | 126 |  | COCCNS(=O)(=O)c1ccc(Nc2nccc(-c3sc(C)nc3C)n2)cc1 [Compound 43, 4-[4-(2,4-Dimethyl-thiazol-5-yl)-pyrimidin-2-ylamino]-N-(2-methoxy-ethyl)-benzenesulfonamide] |
| 200 | 126 |  | CCNc1nc(C)c(-c2ccnc(Nc3ccc(N4CCOCC4)c(Cl)c3)n2)s1 [Compound 134, (3-Chloro-4-morpholin-4-yl-phenyl)-[4-(2-ethylamino-4-methyl-thiazol-5-yl)-pyrimidin-2-yl]-amine] |
|  | 1580 |  | Cc1nc(C)c(-c2ccnc(Nc3ccc(N4CCOCC4)cc3C)n2)s1 [Compound 139, [4-(2,4-Dimethyl-thiazol-5-yl)-pyrimidin-2-yl]-(2-methyl-4-morpholin-4-yl-phenyl)-amine] |
|  | 1580 |  | Cc1ccc(-c2nc(C)c(-c3ccnc(Nc4ccc(N5CCOCC5)cc4)n3)s2)c(C)c1 [Compound 140, {4-[2-(2,4-Dimethyl-phenyl)-4-methyl-thiazol-5-yl]-pyrimidin-2-yl}-(4-morpholin-4-yl-phenyl)-amine] |
| 794 | 158 |  | Cc1nc(C)c(-c2ccnc(Nc3ccc(N4CCOCC4)c(Cl)c3)n2)s1 [Compound 141, (3-Chloro-4-morpholin-4-yl-phenyl)-[4-(2,4-dimethyl-thiazol-5-yl)-pyrimidin-2-yl]-amine] |
| 126 | 50.1 |  | Cc1nc(NC(C)(C)C)sc1-c1ccnc(Nc2ccc(N3CCOCC3)cc2)n1 [Compound 143, [4-(2-tert-Butylamino-4-methyl-thiazol-5-yl)-pyrimidin-2-yl]-(4-morpholin-4-yl-phenyl)-amine] |
| 251 | 100 |  | COCCNc1nc(C)c(-c2ccnc(Nc3ccc(N4CCOCC4)cc3)n2)s1 [Compound 144, {4-[2-(2-Methoxy-ethylamino)-4-methyl-thiazol-5-yl]-pyrimidin-2-yl}-(4-morpholin-4-yl-phenyl)-amine] |
|  | 3980 |  | CNc1nc(C)c(-c2ccnc(Nc3ccc(N4CCOCC4)cc3C)n2)s1 [Compound 145, [4-(4-Methyl-2-methylamino-thiazol-5-yl)-pyrimidin-2-yl]-(2-methyl-4-morpholin-4-yl-phenyl)-amine] |
|  | 2510 |  | CCNc1nc(C)c(-c2ccnc(Nc3ccc(N4CCOCC4)cc3C)n2)s1 [Compound 146, [4-(2-Ethylamino-4-methyl-thiazol-5-yl)-pyrimidin-2-yl]-(2-methyl-4-morpholin-4-yl-phenyl)-amine] |
|  | 501 |  | Cc1nc(-c2ccc(N3CCOCC3)cc2)sc1-c1ccnc(Nc2ccc(N3CCOCC3)cc2)n1 [Compound 147, {4-[4-Methyl-2-(4-morpholin-4-yl-phenyl)-thiazol-5-yl]-pyrimidin-2-yl}-(4-morpholin-4-yl-phenyl)-amine] |
|  |  | 6.1 | Cc1nc(N(C)c2cccnc2)sc1-c1ccnc(Nc2ccc(N3CCOCC3)cc2)n1 [Compound 153, {4-[4-Methyl-2-(methyl-pyridin-3-yl-amino)-thiazol-5-yl]-pyrimidin-2-yl}-(4-morpholin-4-yl-phenyl)-amine] |
| 501 | 200 |  | CCNc1nc(C)c(-c2ccnc(Nc3ccc4c(c3)OCCO4)n2)s1 [Compound 181, (2,3-Dihydro-benzo[1,4]dioxin-6-yl)-[4-(2-ethylamino-4-methyl-thiazol-5-yl)-pyrimidin-2-yl]-amine] |
|  | 1260 |  | Cc1nc(NCCc2ccccc2)sc1-c1ccnc(Nc2ccc3c(c2)OCCO3)n1 [Compound 183, (2,3-Dihydro-benzo[1,4]dioxin-6-yl)-[4-(4-methyl-2-phenethylamino-thiazol-5-yl)-pyrimidin-2-yl]-amine] |
| 126 | 63.1 |  | CNc1nc(C)c(-c2ccnc(Nc3ccc(OC)c(C)c3)n2)s1 [Compound 184, (4-Methoxy-3-methyl-phenyl)-[4-(4-methyl-2-methylamino-thiazol-5-yl)-pyrimidin-2-yl]-amine] |
|  | 251 |  | Cc1nc(C)c(-c2ccnc(Nc3ccc(N4CCOCC4)c(C(N)=O)c3)n2)s1 [Compound 210, 5-[4-(2,4-Dimethyl-thiazol-5-yl)-pyrimidin-2-ylamino]-2-morpholin-4-yl-benzamide] |
|  | 251 |  | Cc1nc(C)c(-c2ccnc(Nc3ccc(C)c(N4CCOCC4)c3)n2)s1 [Compound 214, [4-(2,4-Dimethyl-thiazol-5-yl)-pyrimidin-2-yl]-(4-methyl-3-morpholin-4-yl-phenyl)-amine] |

Second part, the molecule before the results:

| Structure (SMILES) | IC50 [1] [nM] | IC50 [2] [nM] | Kinase Inhibition pIC50 Aurora A kinase [2] |
| --- | --- | --- | --- |
| CCN(CC)S(=O)(=O)c1ccc(Nc2nccc(-c3sc(NC)nc3C)n2)cc1 [Compound 52, N,N-Diethyl-4-[4-(4-methyl-2-methylamino-thiazol-5-yl)-pyrimidin-2-ylamino]-benzenesulfonamide] | 1000 | 100 |  |
| CNc1nc(C)c(-c2ccnc(N)n2)s1 [Compound 85, 4-(4-Methyl-2-methylamino-thiazol-5-yl)-pyrimidin-2-ylamine] |  | 398 |  |
| CCNc1nc(C)c(-c2ccnc(N)n2)s1 [Compound 86, 4-(2-Ethylamino-4-methyl-thiazol-5-yl)-pyrimidin-2-ylamine] |  | 1000 |  |
| CCN(C(C)=O)c1nc(C)c(-c2ccnc(N)n2)s1 [Compound 87, N-[5-(2-Amino-pyrimidin-4-yl)-4-methyl-thiazol-2-yl]-N-ethyl-acetamide] |  | 158 |  |
| Cc1nc(N(C)C)sc1-c1ccnc(N)n1 [Compound 88, 4-(2-Dimethylamino-4-methyl-thiazol-5-yl)-pyrimidin-2-ylamine] |  | 1580 |  |
| CCc1cc(-c2nc(C)c(-c3ccnc(Nc4cccc(CNC(C)=O)c4)n3)s2)ccn1 [Compound 105, N-(3-{4-[2-(2-Ethyl-pyridin-4-yl)-4-methyl-thiazol-5-yl]-pyrimidin-2-ylamino}-benzyl)-acetamide] |  | 316 |  |
| CCNc1nc(C)c(-c2ccnc(Nc3ccc(OC)cc3C)n2)s1 [Compound 111, [4-(2-Ethylamino-4-methyl-thiazol-5-yl)-pyrimidin-2-yl]-(4-methoxy-2-methyl-phenyl)-amine] |  | 3160 |  |
| COc1ccc(Nc2nccc(-c3sc(C)nc3C)n2)c(C)c1 [Compound 112, [4-(2,4-Dimethyl-thiazol-5-yl)-pyrimidin-2-yl]-(4-methoxy-2-methyl-phenyl)-amine] |  | 2510 |  |
| COc1ccc(C)c(Nc2nccc(-c3sc(C)nc3C)n2)c1 [Compound 113, [4-(2,4-Dimethyl-thiazol-5-yl)-pyrimidin-2-yl]-(5-methoxy-2-methyl-phenyl)-amine] |  | 5010 |  |
| Cc1nc(CO)sc1-c1ccnc(Nc2ccc(N(C)C)cc2)n1 [Compound 132, {5-[2-(4-Dimethylamino-phenylamino)-pyrimidin-4-yl]-4-methyl-thiazol-2-yl}-methanol] | 631 | 100 |  |
| CNc1ccc(Nc2nccc(-c3sc(C)nc3C)n2)cc1C(F)(F)F [Compound 149, N^4-[4-(2,4-Dimethyl-thiazol-5-yl)-pyrimidin-2-yl]-N^1-methyl-2-trifluoromethyl-benzene-1,4-diamine] | 251 | 398 |  |
| Cc1nc(-c2cccnc2)sc1-c1ccnc(Nc2ccc3c(c2)OCCO3)n1 [Compound 180, (2,3-Dihydro-benzo[1,4]dioxin-6-yl)-[4-(4-methyl-2-pyridin-3-yl-thiazol-5-yl)-pyrimidin-2-yl]-amine] |  | 1580 |  |
| COc1ccc(Nc2nccc(-c3sc(-c4cccnc4)nc3C)n2)cc1C [Compound 186, (4-Methoxy-3-methyl-phenyl)-[4-(4-methyl-2-pyridin-3-yl-thiazol-5-yl)-pyrimidin-2-yl]-amine] |  | 501 |  |
| Cc1cc(Nc2nccc(-c3sc(CO)nc3C)n2)ccc1N1CCCCC1 [Compound 209, {4-Methyl-5-[2-(3-methyl-4-piperidin-1-yl-phenylamino)-pyrimidin-4-yl]-thiazol-2-yl}-methanol] |  | 251 |  |
